Patent US20230087118A1, “IMIDAZO[1,2-a][sequence] DERIVATIVES AND THEIR USE IN THE TREATMENT OF DISEASE” (priority 2019, published 2023)
pIC50: −log10 of the molar value. Counter-ions that a name gives are not always drawn.

The molecules below were run against T1, IRAK4 (Homo sapiens, UniProt Q9NWZ3) (assay: biochemical). Details: not given.
T1 sequence (Q9NWZ3 1-460): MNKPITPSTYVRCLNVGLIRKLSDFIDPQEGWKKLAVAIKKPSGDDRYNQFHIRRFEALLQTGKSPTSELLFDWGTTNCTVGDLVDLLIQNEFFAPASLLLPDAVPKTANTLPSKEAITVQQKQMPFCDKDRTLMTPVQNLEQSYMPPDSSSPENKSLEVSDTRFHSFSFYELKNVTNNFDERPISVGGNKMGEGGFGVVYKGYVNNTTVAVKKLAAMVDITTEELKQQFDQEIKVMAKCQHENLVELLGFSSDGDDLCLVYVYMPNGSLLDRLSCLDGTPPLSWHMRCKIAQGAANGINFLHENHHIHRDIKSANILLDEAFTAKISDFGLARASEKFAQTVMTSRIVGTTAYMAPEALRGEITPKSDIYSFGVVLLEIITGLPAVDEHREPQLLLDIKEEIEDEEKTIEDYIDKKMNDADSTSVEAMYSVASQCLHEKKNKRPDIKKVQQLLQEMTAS

| Structure (SMILES) | pIC50 |
| --- | --- |
| Cn1ccc(NC(=O)c2cn3cc(C45COC(C)(C4)C5)nc3c(OC3CCC3)n2)n1 [Example 346, 8-Cyclobutoxy-N-(1-methyl-1H-pyrazol-3-yl)-2-(1-methyl-2-oxabicyclo[2.1.1]hexan-4-yl)imidazo[1,2-a]pyrazine-6-carboxamide] | 8.07 |
| COc1ncccc1NC(=O)c1cn2cc(C34COC(C)(C3)C4)nc2c(OC2CCC2)n1 [Example 347, 8-Cyclobutoxy-N-(2-methoxypyridin-3-yl)-2-(1-methyl-2-oxabicyclo[2.1.1]hexan-4-yl)imidazo[1,2-a]pyrazine-6-carboxamide] | 9.22 |
| CC12CC(c3cn4cc(C(=O)Nc5cccc6ccnn56)nc(OC5CCC5)c4n3)(CO1)C2 [Example 348, 8-Cyclobutoxy-2-(1-methyl-2-oxabicyclo[2.1.1]hexan-4-yl)-N-(pyrazolo[1,5-a]pyridin-7-yl)imidazo[1,2-a]pyrazine-6-carboxamide] | 8.09 |
| CC12CC(c3cn4cc(C(=O)Nc5cnn6cccnc56)nc(OC5CCC5)c4n3)(CO1)C2 [Example 349, 8-Cyclobutoxy-2-(1-methyl-2-oxabicyclo[2.1.1]hexan-4-yl)-N-(pyrazolo[1,5-a]pyrimidin-3-yl)imidazo[1,2-a]pyrazine-6-carboxamide] | 8.28 |
| COCc1nc2nc(C34COC(C)(C3)C4)cn2cc1C(=O)Nc1cnn2cc(C)cnc12 [Example 352, 7-(Methoxymethyl)-2-(1-methyl-2-oxabicyclo[2.1.1]hexan-4-yl)-N-(6-methylpyrazolo[1,5-a]pyrimidin-3-yl)imidazo[1,2-a]pyrimidine-6-carboxamide] | 5.19 |
| CC(C)Oc1nc2nc(C34COC(C)(C3)C4)cn2cc1C(=O)Nc1nc(C(F)F)cs1 [Example 367, N-(4-(difluoromethyl)thiazol-2-yl)-7-isopropoxy-2-(1-methyl-2-oxabicyclo[2.1.1]hexan-4-yl)imidazo[1,2-a]pyrimidine-6-carboxamide] | 8.10 |
| CC(C)Oc1nc2nc(C34COC(C)(C3)C4)cn2cc1C(=O)Nc1cccc(-c2cnco2)n1 [Example 368, 7-Isopropoxy-2-(1-methyl-2-oxabicyclo[2.1.1]hexan-4-yl)-N-(6-(oxazol-5-yl)pyridin-2-yl)imidazo[1,2-a]pyrimidine-6-carboxamide] | 9.70 |
| CC(C)Oc1nc2nc(C34COC(C)(C3)C4)cn2cc1C(=O)Nc1cnn2cc(C(F)F)cnc12 [Example 369, N-(6-(difluoromethyl)pyrazolo[1,5-a]pyrimidin-3-yl)-7-isopropoxy-2-(1-methyl-2-oxabicyclo[2.1.1]hexan-4-yl)imidazo[1,2-a]pyrimidine-6-carboxamide] | 9.10 |
| CC12CC(c3cn4cc(C(=O)Nc5cnn6cccnc56)c(OC5CCC5)nc4n3)(CO1)C2 [Example 371, 7-Cyclobutoxy-2-(1-methyl-2-oxabicyclo[2.1.1]hexan-4-yl)-N-(pyrazolo[1,5-a]pyrimidin-3-yl)imidazo[1,2-a]pyrimidine-6-carboxamide] | 9.52 |
| CC(C)Oc1nc2nc(C34COC(C)(C3)C4)cn2cc1C(=O)Nc1cnc2cccnn12 [Example 373, N-(imidazo[1,2-b]pyridazin-3-yl)-7-isopropoxy-2-(1-methyl-2-oxabicyclo[2.1.1]hexan-4-yl)imidazo[1,2-a]pyrimidine-6-carboxamide] | 9.22 |
| Cc1ccn2ncc(NC(=O)c3cn4cc(C56COC(C)(C5)C6)nc4nc3OC(C)C)c2n1 [Example 374, 7-Isopropoxy-2-(1-methyl-2-oxabicyclo[2.1.1]hexan-4-yl)-N-(5-methyl-pyrazolo[1,5-a]pyrimidin-3-yl)imidazo[1,2-a]pyrimidine-6-carboxamide] | 8.85 |
| CC(C)Oc1nc2nc(C34COC(C)(C3)C4)cn2cc1C(=O)Nc1snc2cccnc12 [Example 376, 7-Isopropoxy-N-(isothiazolo[4,3-b]pyridin-3-yl)-2-(1-methyl-2-oxabicyclo[2.1.1]hexan-4-yl)imidazo[1,2-a]pyrimidine-6-carboxamide] | 8.74 |

Results, then the molecule that gave them:

| pIC50 | Structure (SMILES) |
| --- | --- |
| 8.28 | CC(C)Oc1nc2nc(C34COC(C)(C3)C4)cn2cc1C(=O)Nc1ccccn1 [Example 354, 7-Isopropoxy-2-(1-methyl-2-oxabicyclo[2.1.1]hexan-4-yl)-N-(pyridin-2-yl)imidazo[1,2-a]pyrimidine-6-carboxamide] |
| 8.80 | Cc1cccc(NC(=O)c2cn3cc(C45COC(C)(C4)C5)nc3nc2OC(C)C)n1 [Example 355, 7-Isopropoxy-2-(1-methyl-2-oxabicyclo[2.1.1]hexan-4-yl)-N-(6-methylpyridin-2-yl)imidazo[1,2-a]pyrimidine-6-carboxamide] |
| 7.95 | CC(C)Oc1nc2nc(C34COC(C)(C3)C4)cn2cc1C(=O)Nc1cc(F)n(C)n1 [Example 360, N-(5-fluoro-1-methyl-1H-pyrazol-3-yl)-7-isopropoxy-2-(1-methyl-2-oxabicyclo[2.1.1]hexan-4-yl)imidazo[1,2-a]pyrimidine-6-carboxamide] |
| 8.43 | CC(C)Oc1nc2nc(C34COC(C)(C3)C4)cn2cc1C(=O)Nc1ccn(C(F)F)n1 [Example 361, N-(1-(difluoromethyl)-1H-pyrazol-3-yl)-7-isopropoxy-2-(1-methyl-2-oxabicyclo[2.1.1]hexan-4-yl)imidazo[1,2-a]pyrimidine-6-carboxamide] |
| 8.09 | CC(C)Oc1nc2nc(C34COC(C)(C3)C4)cn2cc1C(=O)Nc1ccn(C(F)(F)F)n1 [Example 362, 7-Isopropoxy-2-(1-methyl-2-oxabicyclo[2.1.1]hexan-4-yl)-N-(1-(trifluoromethyl)-1H-pyrazol-3-yl)imidazo[1,2-a]pyrimidine-6-carboxamide] |
| 8.80 | Cn1ccc(NC(=O)c2cn3cc(C45COC(C)(C4)C5)nc3nc2OCC2CC2)n1 [Example 370, 7-(Cyclopropylmethoxy)-N-(1-methyl-1H-pyrazol-3-yl)-2-(1-methyl-2-oxabicyclo[2.1.1]hexan-4-yl)imidazo[1,2-a]pyrimidine-6-carboxamide] |
| 7.24 | CC(C)Oc1nc2nc(C34COC(C)(C3)C4)cn2cc1C(=O)Nc1ccn2nccc2n1 [Example 372, 7-Isopropoxy-2-(1-methyl-2-oxabicyclo[2.1.1]hexan-4-yl)-N-(pyrazolo[1,5-a]pyrimidin-5-yl)imidazo[1,2-a]pyrimidine-6-carboxamide] |
| 8.17 | CC(C)Oc1nc2nc(C34COC(C)(C3)C4)cn2cc1C(=O)Nc1cnn2cc(C3CC3)cnc12 [Example 375, N-(6-cyclopropylpyrazolo[1,5-a]pyrimidin-3-yl)-7-isopropoxy-2-(1-methyl-2-oxabicyclo[2.1.1]hexan-4-yl)imidazo[1,2-a]pyrimidine-6-carboxamide] |

Same assay, conditions: IRAK4 Biochemical Assay (1 mM ATP, 2 h) IC50 (μM), 1 mM ATP, 2 h, 100 pM IRAK4

| Structure (SMILES) | IC50 [µM] |
| --- | --- |
| CC(C)Oc1nc2nc(C34COC(C)(C3)C4)cn2cc1C(=O)Nc1cccc(C#N)c1F [Example 353, N-(3-cyano-2-fluorophenyl)-7-isopropoxy-2-(1-methyl-2-oxabicyclo[2.1.1]hexan-4-yl)imidazo[1,2-a]pyrimidine-6-carboxamide trifluoroacetate] | 0.0025 |
| CC(C)Oc1nc2nc(C34COC(C)(C3)C4)cn2cc1C(=O)Nc1cccc(C(C)(F)F)n1 [Example 356, N-(6-(1,1-difluoroethyl)pyridin-2-yl)-7-isopropoxy-2-(1-methyl-2-oxabicyclo[2.1.1]hexan-4-yl)imidazo[1,2-a]pyrimidine-6-carboxamide trifluoroacetate] | 0.0011 |
| CC(C)Oc1nc2nc(C34COC(C)(C3)C4)cn2cc1C(=O)Nc1cccc(N(C)C)n1 [Example 357, N-(6-(dimethylamino)pyridin-2-yl)-7-isopropoxy-2-(1-methyl-2-oxabicyclo[2.1.1]hexan-4-yl)imidazo[1,2-a]pyrimidine-6-carboxamide trifluoroacetate] | 0.0003 |
| CC(C)Oc1nc2nc(C34COC(C)(C3)C4)cn2cc1C(=O)Nc1cccc2c1OCC2 [Example 377, N-(2,3-dihydrobenzofuran-7-yl)-7-isopropoxy-2-(1-methyl-2-oxabicyclo[2.1.1]hexan-4-yl)imidazo[1,2-a]pyrimidine-6-carboxamide trifluoroacetate] | 0.0003 |

Further lines, results first:

| IC50 [µM] | Structure (SMILES) |
| --- | --- |
| 0.0009 | CC(C)Oc1nc2nc(C34COC(C)(C3)C4)cn2cc1C(=O)Nc1cccc(C2CCOC2)n1 (stereo not shown) [Example 359, 7-Isopropoxy-2-(1-methyl-2-oxabicyclo[2.1.1]hexan-4-yl)-N-(6-(tetrahydro-furan-3-yl)pyridin-2-yl)imidazo[1,2-a]pyrimidine-6-carboxamide trifluoroacetate] |
| 0.0057 | CC(C)Oc1nc2nc(C34COC(C)(C3)C4)cn2cc1C(=O)Nc1ccn(C2CCC2)n1 [Example 364, N-(1-cyclobutyl-1H-pyrazol-3-yl)-7-isopropoxy-2-(1-methyl-2-oxabicyclo[2.1.1]hexan-4-yl)imidazo[1,2-a]pyrimidine-6-carboxamide trifluoroacetate] |
| 0.0128 | CC(C)Oc1nc2nc(C34COC(C)(C3)C4)cn2cc1C(=O)Nc1cnn(C)n1 [Example 365, 7-Isopropoxy-N-(2-methyl-2H-1,2,3-triazol-4-yl)-2-(1-methyl-2-oxabicyclo[2.1.1]hexan-4-yl)imidazo[1,2-a]pyrimidine-6-carboxamide trifluoroacetate] |
| 0.0065 | CC(C)Oc1nc2nc(C34COC(C)(C3)C4)cn2cc1C(=O)Nc1ccc2c(n1)CCC2 [Example 366, N-(6,7-dihydro-5H-cyclopenta[b]pyridin-2-yl)-7-isopropoxy-2-(1-methyl-2-oxabicyclo[2.1.1]hexan-4-yl)imidazo[1,2-a]pyrimidine-6-carboxamide trifluoroacetate] |
